pEC50, pIC50, pKi: −log10 of the molar value. Read-outs that look alike come from different tables or passages of the source. Blank lines part the entries; values can stand above or below the compound they belong to.
Legend:
LXR α LBD protein [1] = biological target: T1, LXR α LBD protein (Homo sapiens (Human), UniProt Q13133); experiment: Human LXRα coactivator recruitment FRET assay, agonist mode; assay type: biochemical
Outline: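 Time-resolved FRET (delay 100 µs, window 200 µs) after 2 h rt incubation of compound with 10 nM (2×) GST-tagged LXRα or LXRβ LBD plus 200 nM fluorescein-SRC2-3 and 20 nM Tb-anti-GST (4×). Percent control vs concentration fit to four-parameter model; EC50 at inflection.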

[2] = biological target: T2, Gal4 DNA binding domain fused to the LBD of LXRα in HEK293 cells (Homo sapiens (Human), UniProt Q13133); experiment: LXR luciferase transcriptional reporter gene assay, agonist mode, LXRα; assay type: cell-based; details: for pEC50: read-out: Cell LXRα EC50
T2 sequence (Q13133 209-447): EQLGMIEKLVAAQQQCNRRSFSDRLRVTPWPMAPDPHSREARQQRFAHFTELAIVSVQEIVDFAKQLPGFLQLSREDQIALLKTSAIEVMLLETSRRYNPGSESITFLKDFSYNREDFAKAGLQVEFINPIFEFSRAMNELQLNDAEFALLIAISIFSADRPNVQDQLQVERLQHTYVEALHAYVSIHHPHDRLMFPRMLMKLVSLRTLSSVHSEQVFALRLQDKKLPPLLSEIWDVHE

LXR α LBD protein [3] = biological target: T1, LXR α LBD protein; details: antagonist mode, 250 nM T0901317, coactivator recruitment TR-FRET; for pIC50: read-out: FRET LXRα IC50
Experimental: (§1) This assay is based on the ability of the LXR-LBDs (LXRα and LXRβ) to recruit and interact with a co-activator peptide.
(§2) Two μL of the DMSO solutions were transferred to the plate and 38 μL of 10 nM LXRα-LBD or LXRβ-LBD (2×) were added immediately to the wells. The plate was shaken for 5 min at rt on an orbital micro shaker (DPC MicroMix® 5), after which 40 μL of 200 nM fluorescein-SRC2-3 peptide and 20 nM Terbium-anti-GST-antibody (Cat# PV3550, Life Technologies, Grand Island, N.Y.) solution (4×) were added to all. The plate was sealed and shaken for 2 min at rt, and incubated at rt for 2 h without agitation. […] The delay and window times were set at 100 and 200 microseconds, respectively. […] The percent control vs. compound concentration data were fit into a four-parameter model, and EC50 values were calculated from the fit as the concentrations corresponding to the inflection points on the concentration-response curves.

[4] = biological target: T3, Gal4 DNA binding domain fused to the LBD of LXRβ in HEK293 cells (Homo sapiens (Human), UniProt P55055); experiment: cell-based
T3 sequence (P55055 222-460 limits assumed): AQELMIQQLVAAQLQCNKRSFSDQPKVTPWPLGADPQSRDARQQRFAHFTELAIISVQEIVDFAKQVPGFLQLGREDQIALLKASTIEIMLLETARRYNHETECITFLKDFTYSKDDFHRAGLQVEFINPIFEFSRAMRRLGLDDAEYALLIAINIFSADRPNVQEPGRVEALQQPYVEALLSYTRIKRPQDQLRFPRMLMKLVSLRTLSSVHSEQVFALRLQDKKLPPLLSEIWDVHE

LXR β LBD protein [5] = biological target: T4, LXR β LBD protein (Homo sapiens (Human), UniProt P55055); experiment: biochemical; assay type: binding
Target sequence in this assay (P55055 222-460 limits assumed): as above

LXR β LBD protein [6] = biological target: T4, LXR β LBD protein; experiment: biochemical
Target sequence in this assay (P55055 222-460): as the sequence (P55055 222-460 limits assumed) above
Experimental: as §1, §2

LXR α LBD protein [7] = biological target: T1, LXR α LBD protein; experiment: LXR α radioligand binding assay (SPA, competition with [3H]TO901317); details: read-out: LXRα Binding Ki
LXR β LBD protein [8] = biological target: T4, LXR β LBD protein; experiment: biochemical; assay type: biochemical; details: for pEC50: read-out: FRET LXRβ EC50
Target sequence in this assay (P55055 222-460): as the sequence (P55055 222-460 limits assumed) above

LXR β LBD protein [9] = biological target: T4, LXR β LBD protein; details: read-out: FRET LXRβ IC50
Target sequence in this assay (P55055 222-460): as the sequence (P55055 222-460 limits assumed) above
Experimental: as §1, §2

[10] = biological target: T2, Gal4 DNA binding domain fused to the LBD of LXRα in HEK293 cells; experiment: LXR luciferase transcriptional reporter gene assay, antagonist mode (200 nM T0901317), LXRα; assay type: cell-based; details: for pIC50: read-out: Cell LXRα IC50
[11] = biological target: T3, Gal4 DNA binding domain fused to the LBD of LXRβ in HEK293 cells; experiment: cell-based; assay type: cell-based
LXRα-LBD or LXRβ-LBD = experiment: Coactivator recruitment FRET assay, antagonist mode: agonist control signal (isoform not distinguished); assay type: biochemical, human; details: 250 nM T0901317, high TR-FRET signal in antagonist mode
Experimental: When this assay was carried out in “antagonist” mode, 250 nM T0901317 (full LXR agonist) was added to induce nearly maximal SRC2-3 recruitment.

[12] = agonist mode, read-out: Cell LXRβ EC50
[13] = Biological Test Example 3, agonist mode
[14] = Biological Test Example 2, agonist mode
[15] = antagonist mode, 200 nM T0901317, HEK293 reporter gene assay
[16] = Biological Test Example 1, read-out: LXRβ Binding Ki
[17] = antagonist mode, 200 nM T0901317, HEK293 reporter gene assay, read-out: Cell LXRβ IC50

T1 sequence (Q13133 209-447): as the sequence (Q13133 209-447) above

Compound: Cc1cccc(C2CN(c3cccc(S(C)(=O)=O)c3)CCN2Cc2ccc(C(F)(F)F)nc2)c1 (stereo not drawn) [46-62, 4-(3-(methylsulfonyl)phenyl)-2-(m-tolyl)-1-((6-(trifluoromethyl)pyridin-3-yl)methyl)piperazine]
pEC50 (LXR α LBD protein [1]; agonist mode): 5.11
FRET LXRα efficacy (LXR α LBD protein [1]; agonist mode): 32%
pEC50 [2]: < 4.70
pIC50 (LXR α LBD protein [3]): < 4.30

Compound: CC(C)[C@H]1CN(c2cccc(S(C)(=O)=O)c2)CCN1C(=O)OC(C)(C)C [2-2, tert-butyl (S)-2-isopropyl-4-(3-(methylsulfonyl)phenyl)piperazine-1-carboxylate]
pEC50 (LXR α LBD protein [1]; agonist mode): 4.63
FRET LXRα efficacy (LXR α LBD protein [1]; agonist mode): 82%
pEC50 [4]: < 4.70
pEC50 ([2]; agonist mode): < 4.70
pKi (LXR β LBD protein [5]): 5.72
pIC50 (LXR β LBD protein [6]): < 4.30
pKi (LXR α LBD protein [7]): < 5.48

Compound: CS(=O)(=O)c1cccc(N2CCN(Cc3ccc(C(F)(F)F)cc3)[C@H](c3ccccc3)C2)c1 (single isomer, unassigned) [46-14]
FRET LXRβ efficacy (LXR β LBD protein [8]): 2742 (49) %
pEC50 (LXR β LBD protein [8]): 5.56
pEC50 (LXR α LBD protein [1]; agonist mode): 4.85
FRET LXRα efficacy (LXR α LBD protein [1]; agonist mode): 37%
pEC50 [4]: < 4.70
pEC50 ([2]; agonist mode): < 4.70
pIC50 (LXR β LBD protein [9]): < 4.30
pIC50 (LXR α LBD protein [3]): < 4.30

Compound: CS(=O)(=O)c1ccc(F)c(N2CCN(Cc3ccc(C(F)(F)F)nc3)C(c3ccccc3)C2)c1 (stereo not drawn) [46-50, 4-(2-fluoro-5-(methylsulfonyl)phenyl)-2-phenyl-1-((6-(trifluoromethyl)pyridin-3-yl)methyl)piperazine]
FRET LXRα efficacy (LXR α LBD protein [3]): 102%

Compound: tert-butyl 4-(3-(methylsulfonyl)phenyl)-2-phenylpiperazine-1-carboxylate [1-5]
FRET LXRβ efficacy (LXR β LBD protein [8]; agonist mode): 78%
pEC50 (LXR β LBD protein [8]; agonist mode): 6.64
pEC50 (LXR α LBD protein [1]; agonist mode): 5.39
FRET LXRα efficacy (LXR α LBD protein [1]; agonist mode): 63%
Cell LXRβ efficacy ([4]; agonist mode): 21%
pEC50 [4, 12]: 6.05
Cell LXRα efficacy [2]: 4297 (17) %
pEC50 [2]: 5.37
pIC50 (LXR β LBD protein [9]; antagonist mode, 250 nM T0901317, coactivator recruitment TR-FRET): < 4.30
pIC50 (LXR α LBD protein [3]): < 4.30

Compound: CS(=O)(=O)c1cccc(N2CCN(C[C@@H]3CCN(CC(F)(F)F)C3)[C@@H](c3ccccc3)C2)c1 (single isomer, unassigned) [48-61]
FRET LXRβ efficacy (LXR β LBD protein [8]; [13]): 112 (23) %
pEC50 (LXR β LBD protein [8]): 6.95
pEC50 (LXR α LBD protein [1]; [13]): 6.46
FRET LXRα efficacy (LXR α LBD protein [1]; [13]): 26%
pEC50 [4]: 6.33
Cell LXRβ efficacy [4, 14]: 467 (5) %
Cell LXRα efficacy [2]: 2312 (23) %
pEC50 [2, 14]: 5.64
Cell LXRα efficacy [10]: 870 (56) %
pIC50 [10, 15]: 6.06
pIC50 [11]: 6.93
Cell LXRβ efficacy [11, 15]: 118 (72) %
pKi (LXR β LBD protein [5]; [16]): 6.38
pKi (LXR α LBD protein [7]): 5.85

Compound: CS(=O)(=O)c1cccc(N2CCN(Cc3ccc(C(F)(F)F)nc3)C(c3cccc(Cl)c3)C2)c1 (stereo not drawn) [46-55, 2-(3-chlorophenyl)-4-(3-(methylsulfonyl)phenyl)-1-((6-(trifluoromethyl)pyridin-3-yl)methyl)piperazine]
pEC50 (LXR α LBD protein [1]; agonist mode): 5.18
FRET LXRα efficacy (LXR α LBD protein [1]; agonist mode): 25%
Cell LXRα efficacy [2]: 2773 (7) %
pEC50 ([2]; agonist mode): 5.56
pIC50 (LXR α LBD protein [3]): < 4.30

Compound: CS(=O)(=O)c1cc(N2CCN(C[C@H]3CC[C@@H](C(F)(F)F)CC3)[C@@H](c3ccc(F)cc3)C2)ccc1F [48-48, (S)-4-(4-fluoro-3-(methylsulfonyl)phenyl)-2-(4-fluorophenyl)-1-(((1s,4R)-4-(trifluoromethyl)cyclohexyl)methyl)piperazine]
FRET LXRβ efficacy (LXR β LBD protein [8]; [13]): 40%
pEC50 (LXR β LBD protein [8]; [13]): 6.85
pEC50 (LXR α LBD protein [1]; [13]): 5.88
FRET LXRα efficacy (LXR α LBD protein [1]; [13]): 42%
Cell LXRβ efficacy [4, 14]: 31%
pEC50 ([4]; Biological Test Example 2, agonist mode, read-out: Cell LXRβ EC50): 6.95
Cell LXRα efficacy [2]: 460 (53) %
pEC50 [2]: 6.34
pIC50 [10]: < 5.00
Cell LXRβ efficacy [11, 15]: 52%
pIC50 [11, 17]: 5.57
pKi (LXR β LBD protein [5]; [16]): 7.64
pKi (LXR α LBD protein [7]): 6.81

Compound: CS(=O)(=O)c1cccc(N2CCN(C[C@H]3CC[C@@H](C(F)(F)F)CC3)[C@@H](c3ccccc3)C2)c1 (single isomer, unassigned) [48-31]
FRET LXRβ efficacy (LXR β LBD protein [8]; agonist mode): 37%
pEC50 (LXR β LBD protein [8]; agonist mode): 7.66
pEC50 (LXR α LBD protein [1]; agonist mode): 6.40
FRET LXRα efficacy (LXR α LBD protein [1]; agonist mode): 56%
Cell LXRβ efficacy ([4]; agonist mode): 35%
pEC50 [4, 12]: 7.02
Cell LXRα efficacy [2]: 254 (61) %
pEC50 [2]: 6.60
Cell LXRα efficacy [10]: 6705 (128) %
pIC50 [10]: 5.17
Cell LXRβ efficacy [11, 15]: 96%
pIC50 [11, 17]: 6.36
pKi (LXR β LBD protein [5]; read-out: LXRβ Binding Ki): 8.30
pKi (LXR α LBD protein [7]): 7.38

pEC50 (LXR α LBD protein [1]; agonist mode): 4.92
FRET LXRα efficacy (LXR α LBD protein [1]; agonist mode): 33%
Cell LXRα efficacy [2]: 2550 (8) %
pEC50 [2]: 5.59
pIC50 (LXR α LBD protein [3]): < 4.30
Compound: tert-butyl (S)-2-benzyl-4-(3-(methylsulfonyl)phenyl)piperazine-1-carboxylate [1-7]

Compound: O=S(=O)(c1ccccc1)N(CC(F)(F)F)c1ccc(C(O)(C(F)(F)F)C(F)(F)F)cc1 [TO901317]
SRC2-3 recruitment (LXRα-LBD or LXRβ-LBD): ~75%

Compound: CC(C)c1ccc(CN2CCN(c3cccc(S(C)(=O)=O)c3)C[C@@H]2c2ccccc2)cc1 [46-8, (S)-1-(4-isopropylbenzyl)-4-(3-(methylsulfonyl)phenyl)-2-phenylpiperazine]
pEC50 (LXR β LBD protein [8]): < 4.30
pEC50 (LXR α LBD protein [1]; agonist mode): 6.33
FRET LXRα efficacy (LXR α LBD protein [1]; agonist mode): 15%
Cell LXRβ efficacy [4]: 1358 (18) %
pEC50 [4]: 5.87
Cell LXRα efficacy [2]: 3200 (22) %
pEC50 [2]: 5.49
Cell LXRα efficacy [10]: 8904 (282) %
pIC50 [10]: 5.05
Cell LXRβ efficacy [11]: 1421 (96) %
pIC50 [11]: 5.85
pKi (LXR β LBD protein [5]; read-out: LXRβ Binding Ki): 6.64
pKi (LXR α LBD protein [7]): 5.76

Compound: Cc1ccc(CN2CCN(c3cccc(S(C)(=O)=O)c3)C[C@@H]2c2ccccc2)cc1 (single isomer, unassigned) [46-6]
pEC50 (LXR β LBD protein [8]): < 4.30
pEC50 (LXR α LBD protein [1]; agonist mode): < 4.30
pEC50 [4]: < 4.70
pEC50 [2]: < 4.70
Cell LXRα efficacy [10]: 957 (105) %
pIC50 [10]: 6.02
Cell LXRβ efficacy [11]: 148 (106) %
pIC50 [11]: 6.83
pKi (LXR β LBD protein [5]; read-out: LXRβ Binding Ki): 7.20
pKi (LXR α LBD protein [7]): 6.28

Compound: CS(=O)(=O)c1cc(N2CCN(Cc3ccc(C(F)(F)F)nc3)C(c3ccccc3)C2)ccc1CO (stereo not drawn) [Cpd No 47-1, (2-(methylsulfonyl)-4-(3-phenyl-4-((6-(trifluoromethyl)pyridin-3-yl)methyl)piperazin-1-yl)phenyl)methanol]
pEC50 (LXR α LBD protein [1]; agonist mode): 5.69
FRET LXRα efficacy (LXR α LBD protein [1]; agonist mode): 76%
Cell LXRα efficacy [2]: 8405 (46) %
pEC50 ([2]; agonist mode): 5.08
pIC50 (LXR α LBD protein [3]): < 4.30

Compound: CC(C)[C@@H]1CN(c2cccc(S(C)(=O)=O)c2)CCN1C(=O)OC(C)(C)C [1-1, tert-butyl (R)-2-isopropyl-4-(3-(methylsulfonyl)phenyl)piperazine-1-carboxylate]
FRET LXRβ efficacy (LXR β LBD protein [8]; agonist mode): 88%
pEC50 (LXR β LBD protein [8]; agonist mode): 7.82
pEC50 (LXR α LBD protein [1]; agonist mode): 6.39
FRET LXRα efficacy (LXR α LBD protein [1]; agonist mode): 60%
pEC50 [4]: 6.33
Cell LXRβ efficacy ([4]; agonist mode): 467 (34) %
Cell LXRα efficacy [2]: 2778 (44) %
pEC50 [2]: 5.56
pIC50 [10]: < 5.00
pIC50 [11]: 5.70
Cell LXRβ efficacy [11, 15]: 1996 (45) %
pKi (LXR β LBD protein [5]; read-out: LXRβ Binding Ki): 6.80
pKi (LXR α LBD protein [7]): 5.77

From patent US10144715B2, “Piperazine derivatives as liver X receptor modulators” (priority 2014, dated 2018)
